Laboratory results reported in patent publication US11266147B2, “Fungicidal oxadiazoles” (Bayer Aktiengesellschaft, priority 2017, dated 2022).

Assay: LogP by HPLC on reversed phase columns (EEC directive 79/831 Annex V.A8)
Assay type: physicochemical
Details: method [a]: LC-UV, acidic range, 0.1% formic acid in water and acetonitrile, linear gradient 10% to 95% acetonitrile
Method: [table] If more than one LogP value is available within the same method, all the values are given and separated by “+”. Calibration was done with straight-chain alkan2-ones (with 3 to 16 carbon atoms) with known LogP values (measurement of LogP values using retention times with linear interpolation between successive alkanones). Lambda-max-values were determined using UV-spectra from 200 nm to 400 nm and the peak values of the chromatographic signals.

chromatographic logP (reversed phase HPLC column) | Structure (SMILES) | LogP
 | Cc1ccnc(Nc2ccc(-c3noc(C(F)(F)F)n3)cc2)n1 [Compound I-06] | 3.83^[a]
3.23 | CC(=O)N(c1ncc(-c2noc(C(F)(F)F)n2)cn1)c1ccccc1F [Compound I-07, N-(2-fluorophenyl)-N-{5-[5-(trifluoromethyl)-1,2,4-oxadiazol-3-yl]pyrimidin-2-yl}acetamide] | 
 | FC(F)(F)c1nc(-c2cnc(NC3CCCC3)nc2)no1 [Compound I-08] | 3.83^[a]
 | FC(F)(Cl)c1nc(-c2cnc(NC3CC3C(F)(F)F)nc2)no1 (centres unmarked) [Compound I-09] | 3.65^[a]
 | FC(F)(F)c1nc(-c2cnc(NC3CCOC3)nc2)no1 (centres unmarked) [Compound I-10] | 2.35^[a]
 | FC(F)(Cl)c1nc(-c2cnc(NC3CCOC3)nc2)no1 (centres unmarked) [Compound I-11] | 2.55^[a]
 | CN(c1ncc(-c2noc(C(F)(F)Cl)n2)cn1)C1CCCC1 [Compound I-12] | 5.42^[a]
 | CC(=O)N1CCC(Nc2ncc(-c3noc(C(F)(F)F)n3)cn2)CC1 [Compound I-13] | 2.17^[a]
 | CC1(Nc2ncc(-c3noc(C(F)(F)Cl)n3)cn2)CC1 [Compound I-14] | 3.25^[a]
 | FC(F)(Cl)c1nc(-c2cnc(NC3CCOCC3)nc2)no1 [Compound I-15] | 2.76^[a]
 | FC(F)(F)c1nc(-c2cnc(NC3CCOCC3)nc2)no1 [Compound I-16] | 2.57^[a]
 | FC(F)(F)c1nc(-c2cnc(NC3(c4ccccc4)CC3)nc2)no1 [Compound I-17] | 3.74^[a]
 | FC1(F)CC(Nc2ncc(-c3noc(C(F)(F)Cl)n3)cn2)C1 [Compound I-18] | 3.48^[a]
 | FC(F)(Cl)c1nc(-c2cnc(NC3Cc4ccccc4C3)nc2)no1 [Compound I-19] | 4.49^[a]
 | CC(=O)N1CCC(Nc2ncc(-c3noc(C(F)(F)Cl)n3)cn2)CC1 [Compound I-20] | 2.32^[a]
 | FC(F)(F)c1nc(-c2cnc(NC3CC3C(F)(F)F)nc2)no1 (centres unmarked) [Compound I-21] | 3.46^[a]
 | O=S1(=O)CCC(Nc2ncc(-c3noc(C(F)(F)F)n3)cn2)C1 (centres unmarked) [Compound I-22] | 2.15^[a]
 | FC(F)(F)c1nc(-c2cnc(NC3(c4ccccn4)CCC3)nc2)no1 [Compound I-23] | 1.96^[a]
 | FC(F)(Cl)c1nc(-c2cnc(NC3(c4ccccn4)CCC3)nc2)no1 [Compound I-24] | 2.13^[a]
 | CC1(Nc2ncc(-c3noc(C(F)(F)F)n3)cn2)CC1 [Compound I-25] | 3.04^[a]
 | FC(F)(F)c1nc(-c2cnc(NC3Cc4ccccc4C3)nc2)no1 [Compound I-26] | 4.27^[a]

chromatographic logP (reversed phase HPLC column) | Structure (SMILES) | LogP
 | FC(F)(Cl)c1nc(-c2cnc(NC3CC3)nc2)no1 [Compound I-27] | 2.76^[a]
 | FC(F)(Cl)c1nc(-c2cnc(NC3CCCC3)nc2)no1 [Compound I-28] | 4.08^[a]
 | FC(F)(Cl)c1nc(-c2cnc(NC3(c4ccccc4)CC3)nc2)no1 [Compound I-29] | 3.94^[a]
 | O=S1(=O)CCC(Nc2ncc(-c3noc(C(F)(F)Cl)n3)cn2)C1 (centres unmarked) [Compound I-30] | 2.32^[a]
 | FC(F)(F)c1nc(-c2cnc(NC3CC3)nc2)no1 [Compound I-31] | 2.57^[a]
 | FC1(F)CC(Nc2ncc(-c3noc(C(F)(F)F)n3)cn2)C1 [Compound I-32] | 3.29^[a]
 | FC(F)(Cl)c1nc(-c2cnc(NC3=NCCS3)nc2)no1 [Compound I-33] | 1.26^[a]
 | FC(F)(F)c1nc(-c2cnc(NC3=NCCS3)nc2)no1 [Compound I-34] | 1.08^[a]
 | Cc1cccc(Nc2ccc(-c3noc(C(F)(F)F)n3)cc2)c1 [Compound I-35] | 4.93^[a]
 | FC(F)(F)c1cccc(Nc2ccc(-c3noc(C(F)(F)F)n3)cc2)c1 [Compound I-36] | 5.08^[a]
 | FC(F)(F)c1nc(-c2ccc(Nc3ccccc3)cc2)no1 [Compound I-37] | 4.56^[a]
 | FC(F)(F)c1nc(-c2ccc(Nc3ccc(Cl)cc3)cc2)no1 [Compound I-38] | 5.00^[a]
 | FC(F)(F)Oc1ccccc1Nc1ccc(-c2noc(C(F)(F)F)n2)cc1 [Compound I-39] | 5.11^[a]
 | Cc1ccnc(Nc2ccc(-c3noc(C(F)(F)Cl)n3)cc2)n1 [Compound I-40] | 2.98^[a]
 | Fc1ccccc1Nc1ncc(-c2noc(C(F)(F)Cl)n2)cn1 [Compound I-41] | 3.94^[a]
 | Fc1ccc(Nc2ncc(-c3noc(C(F)(F)F)n3)cn2)c(F)c1 [Compound I-42] | 3.70^[a]
 | FC(F)Oc1ccc(Nc2ncc(-c3noc(C(F)(F)F)n3)cn2)cc1 [Compound I-43] | 3.92^[a]
 | Fc1cccc(Nc2ncc(-c3noc(C(F)(F)F)n3)cn2)c1 [Compound I-44] | 3.94^[a]
 | COc1cccc(Nc2ncc(-c3noc(C(F)(F)F)n3)cn2)c1 [Compound I-45] | 3.76^[a]
 | FC(F)(F)c1nc(-c2cnc(Nc3cccc(Cl)c3)nc2)no1 [Compound I-46] | 4.34^[a]
 | FC(F)(F)c1nc(-c2cnc(Nc3ccccc3Cl)nc2)no1 [Compound I-47] | 4.20^[a]

chromatographic logP (reversed phase HPLC column) | Structure (SMILES) | LogP
 | N#CCc1ccc(Nc2ncc(-c3noc(C(F)(F)F)n3)cn2)cc1 [Compound I-48] | 3.27^[a]
 | FC(F)(F)c1nc(-c2cnc(Nc3ccc4c(c3)OCO4)nc2)no1 [Compound I-49] | 3.50^[a]
 | CC(=O)Nc1cccc(Nc2ncc(-c3noc(C(F)(F)F)n3)cn2)c1 [Compound I-50] | 2.59^[a]
 | N#Cc1cccc(Nc2ncc(-c3noc(C(F)(F)F)n3)cn2)c1 [Compound I-51] | 3.52^[a]
 | COc1cc(Nc2ncc(-c3noc(C(F)(F)F)n3)cn2)ccc1C [Compound I-52] | 4.30^[a]
 | FC(F)(F)c1cccc(Nc2ncc(-c3noc(C(F)(F)F)n3)cn2)c1 [Compound I-53] | 4.46^[a]
 | COc1ccccc1Nc1ncc(-c2noc(C(F)(F)F)n2)cn1 [Compound I-54] | 4.18^[a]
 | FC(F)(F)c1nc(-c2cnc(Nc3ccc(S(F)(F)(F)(F)F)cc3)nc2)no1 [Compound I-55] | 4.80^[a]
 | Cc1cccc(Nc2ncc(-c3noc(C(F)(F)F)n3)cn2)c1 [Compound I-56] | 4.13^[a]
 | FC(F)(F)c1nc(-c2cnc(Nc3ccon3)nc2)no1 [Compound I-57] | 2.50^[a]
 | FC(F)(F)c1nc(-c2cnc(Nc3ccsc3)nc2)no1 [Compound I-58] | 3.70^[a]
 | COc1ccc(Nc2ncc(-c3noc(C(F)(F)F)n3)cn2)cc1 [Compound I-59] | 3.57^[a]
 | FC(F)(F)c1nc(-c2cnc(Nc3cccc4c3CCC4)nc2)no1 [Compound I-60] | 4.44^[a]
 | FC(F)(F)c1nc(-c2cnc(Nc3ccccc3)nc2)no1 [Compound I-61] | 3.74^[a]
 | FC(F)(F)c1nc(-c2cnc(Nc3ccc(Cl)cc3)nc2)no1 [Compound I-62] | 4.34^[a]
 | Fc1ccc(Nc2ncc(-c3noc(C(F)(F)F)n3)cn2)cc1 [Compound I-63] | 3.79^[a]
 | FC(F)(Cl)c1nc(-c2cnc(Nc3ccon3)nc2)no1 [Compound I-64] | 2.71^[a]
 | FC(F)(Cl)c1nc(-c2cnc(Nc3ccsc3)nc2)no1 [Compound I-65] | 3.92^[a]
 | COc1ccc(Nc2ncc(-c3noc(C(F)(F)Cl)n3)cn2)cc1 [Compound I-66] | 3.79^[a]
 | FC(F)(Cl)c1nc(-c2cnc(Nc3ccc(Cl)cc3)nc2)no1 [Compound I-67] | 4.56^[a]
